# What was measured:
# H9C2 cardiomyoblasts = format: cell-based, rat
# Protocol: Cell viability by flow cytometry analysis (FACS) analysis was determined using the Mebcyto apoptosis kit (MBL-Japan). The cell lines 4T1, U251 (2×10^5 cells/well), astrocytes and the cardiomyoblastic cell line H9C2 (5×10^5 cells/well) were seeded in six-well plates. Following treatment they were trypsinized, washed with PBS, resuspended in […] of binding buffer and double-stained with annexin V-FITC and propidium iodide (PI) according to the manufacturer's instructions. The stained cells were subjected to FACS analyses (Calibur cytometer, Becton Dickinson) where 30,000 cells were allowed to flow for each determination point and the percentage of cells in each state (viability or death) was defined by their distribution in fluorescence dot-plots using WinMdi 2.8 software (Scripps Research Institute, La-Jolla, USA).
# The apoptotic effect of AN446, Dox and their combination was evaluated in U251 and 4T1 cancer cells, and in the non-cancerous rat cardiomyoblast cell line (H9C2) and in primary rat astrocytes, using procedures previously described for AN7 [Tarasenko et al., Invest New Drugs 2012, 30:130-143].
# c-Myc = c-Myc and p-c-Myc (Thr 58) Western blot in tumor and heart of xenograft mice; format: in vivo
# Protocol: Protein levels in the samples were determined with the BCA protein assay kit (Pierce). The samples were subjected to Western blot analyses. The expression of proteins was visualized using their specified primary antibodies followed by the secondary IgG IRDye® 680DX antibody. Each detected band was quantified using the Odyssey Infrared Imaging System (LI-COR Biosciences) and normalized to the level of actin. The fold increase of a specific protein was determined by the ratio of the band intensity obtained from treated and untreated samples.
# The c-Myc protein is an important regulator of normal cell physiology and in tumor cells it plays an important role in activating oncogenic pathways [Soucek & Evan, Curr Opin Genet Dev 2010, 20:91-95].
# TLR4 [1] = conditions: 24 hours, concentrations based on the IC50, FIG. 15
# [2] = system: peripheral blood lymphocytes (PBLs) from healthy volunteers; assay: MTT cell viability assay, 48 hours; format: cell-based; conditions: Homo sapiens, Lymphocyte, read-out: IC50 PBL
# Protocol: (§1) The MyLa CTLC cell line (originating from an indolent mycosis fungoides patient) and the Hut-78 CTLC cell line (originating from an aggressive Sézary patient) were used to evaluate toxicity towards cancer cells, and peripheral blood lymphocytes (PBLs) from healthy volunteers were used to evaluate toxicity towards noncancerous cells.
# (§2) Cell viability was determined by an MTT cell viability assay after 48 hours. MyLa cells (10^4 cells/well), Hut78 cells (5×10^3 cells/well) and normal PBLs (10^5 cells/well) were seeded in 96 well-plates. The PBLs were activated with 40 μg/10^6 cells of phytohemagglutinine (PHA) for 24 h before the experiment.
# Rad51 in H9C2 cells = assay: Rad51 (Western blot), 24 or 48 hours; format: cell-based, rat; conditions: FIG. 14B
# Protocol: (§3) The effects of the abovementioned HDAC inhibitors on DNA damage and repair were then assessed by evaluating changes in levels of phosphorylated histone H2AX (pH2AX), a marker of DNA double-strand breaks, and Rad51, a marker of homologous recombination-guided DNA repair of double-strand breaks [Nagathihalli & Nagaraju, Biochim Biophys Acta 2011, 1816:209-218; Rogakou et al., J Biol Chem 1998, 273:5858-5868].
# (§4) U251 and H9C2 cells were treated with the HDAC inhibitors for 24 or 48 hours, and then subjected to Western blot analysis.
# Rad51 in U251 cells = assay: Rad51 (Western blot), 24 or 48 hours; format: cell-based, human; conditions: FIG. 14A
# Protocol: as §3, §4
# TLR4 [3] = assay: TLR4 gene expression in MDA-MB-231 cells (qRT-PCR); format: cell-based, human; conditions: FIG. 7C
# Protocol: The effect of AN446 on inflammation-associated pathways was evaluated in the monocytic THP1 cell line and in the MDA-MB-231 breast carcinoma cell line. Supernatants of treated THP1 cells were collected and IL-6, IL-10 and TNF-α concentrations were quantified by ELISA (R&D systems). TLR4 expression in THP1 cells was assessed using fluorescent anti-TLR4 antibodies and FACS analysis. In addition, gene expression for MCP-1, TNF-α and TLR4 in MDA-MB-231 was evaluated by qRT-PCT, following treatment with AN446 and/or paclitaxel.
# MyLa CTLC cell line = assay: MTT cell viability assay, 48 hours; format: cell-based, human
# Protocol: as §1, §2
# Hut-78 CTLC cell line = assay: MTT cell viability assay, 48 hours; format: cell-based, human
# Protocol: as §1, §2
# IL-6 = assay: LPS-induced IL-6 secretion by normal human astrocytes (sandwich-ELISA); format: cell-based; conditions: 20 μM, LPS 1 μg/ml 24 hours, FIG. 16
# Protocol: Normal human astrocytes (NHA) were treated with 20 μM AN446, and lipopolysaccharide (1 μg/ml) was then added for 24 hours, and the supernatants of the cultured cells were collected. IL-6 concentrations in cell culture supernatants were quantified by sandwich-ELISA using specific pairs of mAb antibodies (R&D).
# TNF-α = assay: Serum TNF-α in U251 xenograft mice (ELISA); format: in vivo; conditions: co-administration with doxorubicin, FIG. 8C
# Protocol: AN446 was tested in vivo using a xenograft of glioblastoma (U251 cells) in mice.
# U251 glioblastoma cells = assay: ROS production (DCF-DA, flow cytometry); format: cell-based, human; conditions: 5-6 h treatment, FIG. 1D
# Protocol: ROS were measured in live cells by monitoring the oxidation of DCF-DA (a cell-permeable probe), which undergoes deacetylation by cellular esterases and fluoresces upon oxidation by ROS. U251 MG (2×10^5 cells/six-well plates), astrocytes or H9C2 (5×10^5 cells/six-well plates) were treated as specified, incubated with […] DCF-DA for 30 min at 37° C., washed with PBS and analyzed (10^4 cells) by flow cytometry using a 488 nm excitation beam (Calibur cytometer, Becton Dickinson). The percentage of cells stained positively for DCF was determined with CellQuest software (BD Biosciences, San Jose, Calif., USA).
# To gain insights into the mechanism of cell-type specific effects, ROS production in cancer cells and in non-cancer cells after treatment for 5-6 h with AN446, Dox and AN446+Dox, were assessed by staining the cells with the membrane-permeable fluorescent dye DCF-DA.
smiles,measurement,setting,value
"CCCC(CCC)C(=O)Nc1nc2c(ncn2COCCOC(=O)C(CCC)CCC)c(=O)[nH]1 [AN446, N-valproyl-9-(2-valproyloxy)ethoxymethyl-guanine]",cell death in H9C2 cardiomyoblasts,"H9C2 cardiomyoblasts; 24, 48 or 72 hours, each inhibitor at its U251 IC50, FIG. 10",did not induce significant cardiomyocyte cell death
same,viability / mortality of H9C2 cells,"H9C2 cardiomyoblasts; noncancerous cells, combination compared to Dox alone, FIG. 1C",did not substantially affect the viability
same,c-Myc protein expression in the hearts,"c-Myc; heart, FIG. 5B",significantly increased its expression to a level higher than in naive or vehicle-treated mice
same,c-Myc protein expression in tumors,"c-Myc; tumor, FIG. 5A",decreased dramatically
same,TLR4 expression in MDA-231 cells,TLR4 [1],considerably more effective than valproic acid at repressing TLR4
same,IC50,[2],200 ± 3 µM
same,expression of Rad51 in cardiomyocytes (H9C2),Rad51 in H9C2 cells,moderately increased expression
same,expression of Rad51 in U251 cancer cells,Rad51 in U251 cells,reduced expression of Rad51
same,paclitaxel-induced increase in expression of TLR4,TLR4 [3]; combination with paclitaxel,significantly attenuated
same,expression of TLR4,TLR4 [3]; single agent,reduced expression of TLR4
same,IC50,"MyLa CTLC cell line; Homo sapiens, 48 h, read-out: IC50 MyLa",40 ± 2.3 µM
same,toxicity to MyLa cells relative to normal PBLs,MyLa CTLC cell line; from Table 1 IC50 values,about 5 fold
same,IC50,"Hut-78 CTLC cell line; Homo sapiens, HuT78, 48 h, read-out: IC50 HUT78",21 ± 1.3 µM
same,toxicity to Hut-78 cells relative to normal PBLs,Hut-78 CTLC cell line; from Table 1 IC50 values,about 10 fold
same,lipopolysaccharide-induced secretion of IL-6 by human astrocytes,IL-6,inhibited
same,doxorubicin-induced rise in serum levels of TNF-α,TNF-α,prevented a doxorubicin-induced rise in serum levels of TNF-α
same,percentage of ROS positive U251 cells,U251 glioblastoma cells,increased the percentage of ROS positive U251 glioblastoma cells significantly more than Dox
